Assay results published in patent publication US20250241923A1, “A DUAL SELECTIVE PI3K DELTA AND GAMMA INHIBITORS AND/OR A SALT-INDUCIBLE KINASE 3 INHIBITOR FOR TREATING SOLID TUMORS” (Incozen Therapeutics Pvt. Ltd, priority 2022, published 2025).
“Also recorded” adds a separate entry of the source.

Legend:
[1] = system: MCF-7 cell lines; test: Cell proliferation (MTT), Compound M and olaparib, MCF-7; type: cell-based; conditions: Homo sapiens, MCF7, olaparib alone (5 μM, FIG. 5), 72 h, read-out: growth inhibition
Procedure: • MCF-7 cells were plated in MEM+10% FBS complete media at pre-determined density in a 96-well plate. • Cells were exposed to either DMSO (control) alone, Compound M alone, olaparib alone, or a combination of Compound M and olaparib. • Cells were incubated for 72 h in presence of the inhibitors. • MTT reaction was performed to determine the cell viability at the end of the treatment period and absorbance was measured at wavelength 560 and 640 nM. • % cell growth inhibitions were calculated, and Tukey's analysis was performed using GraphPad Prism to compare the treated groups.

[2] = system: OVCAR-3 ovarian cancer cell lines; test: Anti-proliferative activity with PARP inhibitors, OVCAR-3; type: cell-based; conditions: Homo sapiens, olaparib alone (3 μM, FIG. 6C), read-out: growth inhibition
[3] = system: MCF-7 breast cancer cell line; test: Anti-proliferative effect of taxol (Example 10), MCF-7; type: cell-based; conditions: taxol alone (Example 10)
[4] = system: MDA-MB-231 breast cancer cell line; test: Anti-proliferative effect of taxol (Example 10), MDA-MB-231; type: cell-based; conditions: taxol alone (Example 10)
[5] = system: MCF-7 breast cancer cell lines; test: cells; conditions: Homo sapiens, MCF7, 72 h, read-out: growth inhibition
[6] = system: SK-OV-3 ovarian cancer cell line; test: Anti-proliferative effect of taxol and Compound (M) (Example 10), SK-OV-3; type: cell-based; conditions: Homo sapiens, taxol alone (6 nM, FIG. 7), read-out: growth inhibition
[7] = system: MDA-MB-231 breast cancer cell lines; test: cells; conditions: Homo sapiens, MDA-MB-231, 72 h, read-out: growth inhibition
[8] = system: ZR.75.1 breast cancer cell line; test: Anti-proliferative effect of taxol (Example 10), ZR.75.1; type: cell-based; conditions: taxol alone (Example 10)
[9] = Metabolic stability in liver microsomes, rat; type: in vitro ADME
From the text: (§1) In in vitro studies using liver microsomes, the metabolic stability of tenalisib followed the rank order of rat>human>dog>monkey>mouse (Table 3).

[10] = target: T1, PI3Kδ (Homo sapiens, UniProt O00329); test: anti-FcεR1 induced CD63 expression in human whole blood; type: cell-based; set-up: endogenous in cells; host or cells: human whole blood (anti-FcεR1 induced CD63); conditions: whole blood from healthy human subjects; flow cytometry; read-out: EC50 of anti-FcεR1 (PI3Kδ) mediated CD63 expression
[11] = system: plasma proteins; test: In vitro protein binding, monkey plasma; type: in vitro ADME
Procedure: (§2) In vitro protein binding studies were performed using rat, dog, monkey and human plasma. Binding of tenalisib to plasma proteins was >96% across all species.

[12] = Pharmacokinetics, oral bioavailability in mice; type: in vivo; conditions: mouse, plasma
Procedure: (§3) Pharmacokinetic studies following single-dose and repeat dose administration were performed in mice, rats, dogs, humans and monkeys. Tenalisib plasma concentrations were determined by a validated LC-MS/MS method. The pharmacokinetic profile of tenalisib was evaluated following both oral and intravenous administration. […] In an in vitro study using liver microsomes, the metabolic stability followed a rank order of rat>human>dog>monkey>mouse.

[13] = target: T2, PI3Kβ (Mus musculus, UniProt Q8BTI9); test: PI3K isoform cell-based assay: PI3K β-mediated phosphorylation of AKT in 3T3 fibroblasts; conditions: pAKT by PDGF or lysophosphatidic acid in 3T3 fibroblasts
T2 construct: endogenous in cells; host or cells: 3T3 fibroblasts (pAKT)

[14] = Metabolic stability in liver microsomes, dog; type: in vitro ADME
From the text: as §1

[15] = system: plasma proteins; test: In vitro protein binding, human plasma; type: in vitro ADME
Procedure: as §2

[16] = Metabolic stability in liver microsomes, rank order across species; type: in vitro ADME, rat, human, dog, monkey, mouse
Procedure: as §3, §1

[17] = system: plasma proteins; test: In vitro protein binding, rat plasma; type: in vitro ADME
Procedure: as §2

[18] = In vitro plasma stability, rat plasma; type: in vitro ADME; conditions: LC-MS/MS
Procedure: (§4) In vitro plasma stability studies were performed using rat, dog, monkey and human plasma. The concentration of tenalisib was measured by LC-MS/MS.

[19] = Pharmacokinetics, oral bioavailability in dogs; type: in vivo; conditions: dog, plasma
Procedure: as §3

[20] = target: PI3Kβ (Homo sapiens, UniProt P42338); test: PI3K isoform enzyme assay (HTRF), PI3Kβ; type: biochemical; conditions: 100 μM ATP
[21] = In vitro plasma stability, human plasma; type: in vitro ADME; conditions: LC-MS/MS
Procedure: as §4

[22] = Metabolic stability in liver microsomes, human; type: in vitro ADME
From the text: as §1

[23] = target: T3, PI3Kα (Mus musculus, UniProt P42337); test: PI3K isoform cell-based assay: PI3K α-mediated phosphorylation of AKT in 3T3 fibroblasts; conditions: pAKT by PDGF or lysophosphatidic acid in 3T3 fibroblasts
T3 construct: endogenous in cells; host or cells: 3T3 fibroblasts (pAKT)

[24] = target: T1, PI3Kδ; test: PI3K isoform cell-based assay: anti-IgM induced human B-cell proliferation; set-up: endogenous in cells; host or cells: human B cells (anti-IgM proliferation); human whole blood (anti-FcεR1 induced CD63)
[25] = Metabolic stability in liver microsomes, mouse; type: in vitro ADME
From the text: as §1

[26] = Metabolic stability in liver microsomes, monkey; type: in vitro ADME
From the text: as §1

[27] = Tissue distribution upon single oral administration; type: in vivo; conditions: single oral administration 10 mg/kg bodyweight; male wistar rats
Procedure: Tissue distribution upon single oral administration (10 mg/kg bodyweight) of tenalisib was studied in male wistar rats. The rank order of Cmax and AUC in Wistar rats was liver>kidney>heart>plasma>thymus>spleen>serum>lung>blood>brain.

[28] = In vitro plasma stability, dog plasma; type: in vitro ADME; conditions: LC-MS/MS
Procedure: as §4

[29] = system: MC38 syngeneic murine colon carcinoma; test: MC38 syngeneic murine colon carcinoma C57BL/6 model; type: in vivo; conditions: day 22; daily tenalisib; C57BL/6 female mice
Procedure: Daily tenalisib alone and in combination with anti-PD-1 (clone: RMP1-14) was evaluated for tumor growth inhibition (TGI) in the MC38 syngeneic murine colon carcinoma model in immunocompetent C57BL/6 female mice.

[30] = target: T1, PI3Kδ; test: PI3K isoform enzyme assay (HTRF), PI3Kδ; type: biochemical
[31] = target: T4, PI3Kγ (Mus musculus, UniProt Q9JHG7); test: PI3K isoform cell-based assay: c5a induced pAKT in RAW macrophages
T4 construct: endogenous in cells; host or cells: RAW macrophages (c5a induced pAKT)

[32] = target: T5, PI3Kγ (Homo sapiens, UniProt P48736); test: fMLP induced CD63 expression in human whole blood; type: cell-based; set-up: endogenous in cells; host or cells: human whole blood (fMLP induced CD63); conditions: whole blood from healthy human subjects; flow cytometry; read-out: EC50 of fMLP (PI3Kγ) mediated CD63 expression
[33] = Pharmacokinetic studies, absorption and clearance across the tested species; type: in vivo, mice, rats, dogs, humans and monkeys
Procedure: as §3

[34] = system: locally advanced or metastatic breast cancer; test: Phase II randomized open label study in breast cancer patients; type: in vivo, human
Procedure: This is a Phase II, randomized, open label study, designed to evaluate the preliminary efficacy and safety of tenalisib (Compound A) at two dose levels (800 mg BID and 1200 mg BID) in 40 patients with locally advanced or metastatic breast cancer. 20 patients will be enrolled in each of Group 1 (tenalisib 800 mg BID) and Group 2 (tenalisib 1200 mg BID). Both groups will be run in parallel.
• 1. Provision of full informed consent prior to any study-specific procedures. • 2. Patients must be ≥18 years of age, at the time of signing informed consent. • 3. Female patients who have histologically and/or cytologically confirmed locally advanced or metastatic breast cancer that has progressed following at least one line of therapy. • 4. Patients with at least one measurable lesion per RECIST version 1.1 at baseline that can be accurately assessed by CT scan or MRI and is suitable for repeated assessment at follow up-visits. • 5. ECOG performance status 0 to 2. • 6. Life expectancy of at least 3 months. • 7. […] Female patient of childbearing potential should be willing to use a medically acceptable method of contraception as defined in Appendix B while participating in the study and for 30 days after the last dose of study drug AND must have a negative serum pregnancy test within 3 days prior to Cycle 1 Day 1 (C1D1). • 9. Ability to swallow and retain oral medication. • 10. Willingness and capability to comply with the study requirements.

[35] = system: plasma proteins; test: In vitro protein binding, dog plasma; type: in vitro ADME
Procedure: as §2

[36] = Pharmacokinetics, oral bioavailability in rats; type: in vivo; conditions: rat, plasma
Procedure: as §3

[37] = In vitro plasma stability, monkey plasma; type: in vitro ADME; conditions: LC-MS/MS
Procedure: as §4

[38] = target: T5, PI3Kγ; test: PI3K isoform enzyme assay (HTRF), PI3Kγ; type: biochemical; conditions: 100 μM ATP

T1 sequence (O00329 whole entry): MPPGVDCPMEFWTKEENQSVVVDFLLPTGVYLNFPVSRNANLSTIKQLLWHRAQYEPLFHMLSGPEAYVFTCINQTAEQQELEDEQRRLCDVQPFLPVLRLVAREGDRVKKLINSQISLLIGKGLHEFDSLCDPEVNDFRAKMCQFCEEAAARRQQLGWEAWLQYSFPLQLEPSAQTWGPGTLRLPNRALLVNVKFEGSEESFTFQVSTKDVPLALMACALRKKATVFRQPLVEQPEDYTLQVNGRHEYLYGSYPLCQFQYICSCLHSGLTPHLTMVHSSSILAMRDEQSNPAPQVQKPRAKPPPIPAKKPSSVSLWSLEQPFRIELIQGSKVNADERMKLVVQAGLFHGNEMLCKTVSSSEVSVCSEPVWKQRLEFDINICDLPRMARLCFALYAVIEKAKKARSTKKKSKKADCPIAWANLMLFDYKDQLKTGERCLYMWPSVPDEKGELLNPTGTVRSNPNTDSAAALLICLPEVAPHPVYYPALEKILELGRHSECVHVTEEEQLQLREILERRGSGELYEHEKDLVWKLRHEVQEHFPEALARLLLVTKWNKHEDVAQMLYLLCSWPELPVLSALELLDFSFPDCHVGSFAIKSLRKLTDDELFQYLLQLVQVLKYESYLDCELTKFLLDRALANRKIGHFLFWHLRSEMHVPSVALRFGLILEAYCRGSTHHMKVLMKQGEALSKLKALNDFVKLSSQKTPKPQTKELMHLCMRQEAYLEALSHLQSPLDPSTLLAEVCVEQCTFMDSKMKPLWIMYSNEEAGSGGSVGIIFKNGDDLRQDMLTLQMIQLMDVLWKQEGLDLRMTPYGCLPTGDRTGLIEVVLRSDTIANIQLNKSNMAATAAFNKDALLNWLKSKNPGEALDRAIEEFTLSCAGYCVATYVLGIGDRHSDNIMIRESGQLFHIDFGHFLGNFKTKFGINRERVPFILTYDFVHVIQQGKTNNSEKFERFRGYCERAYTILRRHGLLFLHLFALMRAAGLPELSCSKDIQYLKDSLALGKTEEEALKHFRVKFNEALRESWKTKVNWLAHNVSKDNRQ
T1 sequence (P27986 whole entry partner): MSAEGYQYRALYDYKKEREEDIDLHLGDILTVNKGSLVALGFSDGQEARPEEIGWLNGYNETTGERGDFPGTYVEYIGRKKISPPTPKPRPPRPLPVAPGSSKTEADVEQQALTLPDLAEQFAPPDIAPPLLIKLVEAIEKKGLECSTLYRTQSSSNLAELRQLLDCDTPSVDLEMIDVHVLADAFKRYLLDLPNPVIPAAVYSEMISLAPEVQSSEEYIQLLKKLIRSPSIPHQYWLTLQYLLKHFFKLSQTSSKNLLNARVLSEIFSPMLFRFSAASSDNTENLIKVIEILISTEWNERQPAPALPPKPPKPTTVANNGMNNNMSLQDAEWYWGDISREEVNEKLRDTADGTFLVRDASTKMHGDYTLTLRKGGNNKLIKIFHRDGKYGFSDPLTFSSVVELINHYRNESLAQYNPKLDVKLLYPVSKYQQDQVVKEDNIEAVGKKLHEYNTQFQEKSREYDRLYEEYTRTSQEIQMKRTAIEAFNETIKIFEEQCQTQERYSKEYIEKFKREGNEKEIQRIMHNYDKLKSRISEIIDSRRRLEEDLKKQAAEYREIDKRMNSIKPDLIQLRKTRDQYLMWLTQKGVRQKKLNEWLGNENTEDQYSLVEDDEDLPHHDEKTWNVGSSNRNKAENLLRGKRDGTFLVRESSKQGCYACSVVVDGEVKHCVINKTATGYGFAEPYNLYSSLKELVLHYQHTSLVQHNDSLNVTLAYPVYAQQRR
T5 sequence (P48736 whole entry): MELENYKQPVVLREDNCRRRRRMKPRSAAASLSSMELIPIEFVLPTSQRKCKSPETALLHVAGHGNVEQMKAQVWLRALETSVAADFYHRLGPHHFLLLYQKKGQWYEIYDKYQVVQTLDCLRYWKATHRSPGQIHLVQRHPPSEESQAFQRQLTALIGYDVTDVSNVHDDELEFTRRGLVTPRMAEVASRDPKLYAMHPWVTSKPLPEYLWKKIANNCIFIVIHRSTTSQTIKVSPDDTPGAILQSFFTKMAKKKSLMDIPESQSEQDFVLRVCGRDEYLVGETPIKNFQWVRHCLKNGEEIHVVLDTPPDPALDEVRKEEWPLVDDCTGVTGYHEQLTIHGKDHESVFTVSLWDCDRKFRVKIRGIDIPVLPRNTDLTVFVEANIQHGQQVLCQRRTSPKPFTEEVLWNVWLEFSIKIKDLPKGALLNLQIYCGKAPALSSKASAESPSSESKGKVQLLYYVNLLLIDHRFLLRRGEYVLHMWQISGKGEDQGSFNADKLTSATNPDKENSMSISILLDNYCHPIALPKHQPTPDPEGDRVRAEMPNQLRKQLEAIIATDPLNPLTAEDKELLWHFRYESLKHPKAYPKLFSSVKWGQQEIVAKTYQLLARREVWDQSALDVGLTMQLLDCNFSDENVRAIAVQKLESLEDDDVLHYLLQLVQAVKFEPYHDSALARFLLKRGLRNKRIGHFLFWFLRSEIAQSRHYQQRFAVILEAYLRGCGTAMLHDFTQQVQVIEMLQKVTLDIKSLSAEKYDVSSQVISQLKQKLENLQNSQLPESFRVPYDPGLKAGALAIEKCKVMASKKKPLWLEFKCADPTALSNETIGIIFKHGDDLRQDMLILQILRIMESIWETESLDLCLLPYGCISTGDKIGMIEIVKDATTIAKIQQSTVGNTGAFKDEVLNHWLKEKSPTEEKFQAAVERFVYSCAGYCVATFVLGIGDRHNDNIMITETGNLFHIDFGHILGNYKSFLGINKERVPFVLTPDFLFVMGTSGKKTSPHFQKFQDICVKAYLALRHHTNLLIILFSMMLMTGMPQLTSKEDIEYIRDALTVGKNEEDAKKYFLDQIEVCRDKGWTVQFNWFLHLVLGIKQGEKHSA
Sequence of PI3Kβ (Homo sapiens, UniProt P42338) (P42338 whole entry, canonical isoform): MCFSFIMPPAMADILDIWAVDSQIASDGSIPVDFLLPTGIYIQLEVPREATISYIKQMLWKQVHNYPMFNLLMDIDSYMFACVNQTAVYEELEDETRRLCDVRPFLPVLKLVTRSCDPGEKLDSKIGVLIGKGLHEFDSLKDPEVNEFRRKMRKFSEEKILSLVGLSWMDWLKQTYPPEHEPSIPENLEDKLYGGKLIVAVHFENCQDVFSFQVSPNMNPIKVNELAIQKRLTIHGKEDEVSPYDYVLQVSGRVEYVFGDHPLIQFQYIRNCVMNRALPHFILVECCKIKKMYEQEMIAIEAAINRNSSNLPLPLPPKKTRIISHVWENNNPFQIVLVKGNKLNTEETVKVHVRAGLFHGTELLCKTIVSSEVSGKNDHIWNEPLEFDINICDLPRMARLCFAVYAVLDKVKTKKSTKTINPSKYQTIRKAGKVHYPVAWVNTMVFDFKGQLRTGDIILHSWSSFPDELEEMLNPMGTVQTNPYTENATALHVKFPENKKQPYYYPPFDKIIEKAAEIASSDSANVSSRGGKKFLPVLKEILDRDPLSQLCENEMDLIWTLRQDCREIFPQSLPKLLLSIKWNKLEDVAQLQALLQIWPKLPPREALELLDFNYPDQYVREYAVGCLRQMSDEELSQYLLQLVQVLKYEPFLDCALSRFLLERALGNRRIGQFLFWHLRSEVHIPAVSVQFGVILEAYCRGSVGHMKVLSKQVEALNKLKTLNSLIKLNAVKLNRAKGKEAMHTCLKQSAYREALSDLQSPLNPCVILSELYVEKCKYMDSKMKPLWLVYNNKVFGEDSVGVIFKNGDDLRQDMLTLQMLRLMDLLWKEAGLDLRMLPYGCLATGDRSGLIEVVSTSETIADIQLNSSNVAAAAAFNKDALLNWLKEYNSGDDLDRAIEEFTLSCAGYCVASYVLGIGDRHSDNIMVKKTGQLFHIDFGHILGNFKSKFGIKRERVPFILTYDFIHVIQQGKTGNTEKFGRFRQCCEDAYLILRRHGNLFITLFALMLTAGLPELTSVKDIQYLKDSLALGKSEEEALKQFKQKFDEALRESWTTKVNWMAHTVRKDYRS
Sequence of PI3Kβ (Homo sapiens, UniProt P42338) (P27986 whole entry partner, canonical isoform): as the sequence (P27986 whole entry partner) above
T4 sequence (Q9JHG7 whole entry, canonical isoform): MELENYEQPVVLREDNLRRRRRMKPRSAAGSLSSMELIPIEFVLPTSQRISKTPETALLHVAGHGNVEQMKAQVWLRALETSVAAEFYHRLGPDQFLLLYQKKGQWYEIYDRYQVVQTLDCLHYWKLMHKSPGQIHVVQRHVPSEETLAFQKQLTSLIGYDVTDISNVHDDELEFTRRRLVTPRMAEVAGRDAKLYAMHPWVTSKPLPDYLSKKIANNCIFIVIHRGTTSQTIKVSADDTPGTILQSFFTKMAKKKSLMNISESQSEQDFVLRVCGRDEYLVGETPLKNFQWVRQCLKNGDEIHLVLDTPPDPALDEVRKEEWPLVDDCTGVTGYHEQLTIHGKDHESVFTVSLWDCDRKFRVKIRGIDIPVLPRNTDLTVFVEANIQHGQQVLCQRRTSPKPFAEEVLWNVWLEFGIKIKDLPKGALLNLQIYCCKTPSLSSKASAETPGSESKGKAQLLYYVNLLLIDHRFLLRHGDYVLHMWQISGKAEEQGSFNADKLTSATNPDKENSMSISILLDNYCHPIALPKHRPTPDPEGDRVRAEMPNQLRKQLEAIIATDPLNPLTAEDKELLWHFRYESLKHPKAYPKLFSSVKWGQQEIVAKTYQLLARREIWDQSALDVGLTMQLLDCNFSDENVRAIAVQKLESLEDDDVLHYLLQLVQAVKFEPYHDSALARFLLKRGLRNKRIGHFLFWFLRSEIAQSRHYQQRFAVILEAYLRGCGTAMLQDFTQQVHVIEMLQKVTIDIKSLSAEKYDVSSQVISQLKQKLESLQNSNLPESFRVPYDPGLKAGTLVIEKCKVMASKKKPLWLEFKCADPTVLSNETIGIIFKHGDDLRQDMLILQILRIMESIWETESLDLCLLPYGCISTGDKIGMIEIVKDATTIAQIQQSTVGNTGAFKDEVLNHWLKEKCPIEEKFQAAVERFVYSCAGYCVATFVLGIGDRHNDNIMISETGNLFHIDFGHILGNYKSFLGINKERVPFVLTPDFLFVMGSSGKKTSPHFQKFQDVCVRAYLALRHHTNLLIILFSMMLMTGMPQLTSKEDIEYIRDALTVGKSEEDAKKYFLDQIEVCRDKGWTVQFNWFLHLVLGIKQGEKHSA

O=C(c1cc(Cc2n[nH]c(=O)c3ccccc23)ccc1F)N1CCN(C(=O)C2CC2)CC1 [Olaparib]
inhibition at 5 µM [1]: 43.2% | inhibition at 3 µM [2]: 29.3%

CC(=O)O[C@H]1C(=O)[C@@]2(C)[C@H]([C@H](OC(=O)c3ccccc3)[C@]3(O)C[C@H](OC(=O)[C@H](O)[C@@H](NC(=O)c4ccccc4)c4ccccc4)C(C)=C1C3(C)C)[C@]1(OC(C)=O)CO[C@@H]1C[C@@H]2O [Taxol]
growth inhibition [3]: 17.3% | growth inhibition [4]: 44.4% | inhibition at 0.003 µM [5]: 28.8% | inhibition at 0.006 µM [6]: 59.2% | inhibition at 0.003 µM [7]: 34.5% | growth inhibition [8]: 25.8%

CC[C@H](Nc1ncnc2[nH]cnc12)c1oc2ccccc2c(=O)c1-c1cccc(F)c1 [Compound A, (S)-2-(1-(9H-purin-6-ylamino)propyl)-3-(3-fluorophenyl)-4H-chromen-4-one]
% Metabolic Stability [9]: 79.3% | EC50 [10]: 39 nM | Binding to plasma proteins [11]: > 96% | bioavailability [12]: 21.6% | EC50 [13]: 2070 nM | % Metabolic Stability [14]: 52.2% | Binding to plasma proteins [15]: > 96% | metabolic stability rank order [16]: rat>human>dog>monkey>mouse | Binding to plasma proteins [17]: > 96% | plasma stability [18]: stable | bioavailability [19]: > 100% | IC50 [20]: 4020 nM | plasma stability [21]: stable | % Metabolic Stability [22]: 73.9% | EC50 [23]: > 10000 nM | selectivity over the α and β isoforms (cell-based assay) ([24]; PI3K δ/γ versus PI3K α and β): selective | EC50 ([24]; anti-IgM induced human B-cell proliferation): 38.1 nM | % Metabolic Stability [25]: 26.0% | % Metabolic Stability [26]: 29.6% | rank order of Cmax and AUC in tissues [27]: liver>kidney>heart>plasma>thymus>spleen>serum>lung>blood>brain | plasma stability [28]: stable | TGI (Tumour Growth Inhibition) compared to control [29]: 29% | IC50 ([30]; HTRF, 100 μM ATP): 24.5 nM | selectivity over the α and β isoforms (enzyme assay) ([30]; PI3K δ/γ versus PI3K α and β, listed as compound of formula (A)): several fold selectivity; also recorded: selective | EC50 [31]: 22.3 nM | EC50 [32]: 37.8 nM | Absorption [33]: rapid | clearance [33]: moderate | Clinical Benefit Rate, % (CBR = PR + CR + SD ≥24 weeks) ([34]; 800 mg BID (N = 20)): (55) % | Clinical Benefit Rate, n (CBR = PR + CR + SD ≥24 weeks) ([34]; 800 mg BID (N = 20)): 11 | Disease Control rate (DCR), % ([34]; 800 mg BID (N = 20)): (65) % | Duration of Clinical Benefit, median ([34]; 800 mg BID (N = 20)): 9.36 | Duration of Response (DOR) in ORR patients, median ([34]; 800 mg BID (N = 20)): 7.53 | Duration of Treatment (DOT), median ([34]; 800 mg BID (N = 20)): 5.55 | Objective Response rate (ORR), % ([34]; 800 mg BID (N = 20)): (10) % | Partial Response, % ([34]; 800 mg BID (N = 20)): (10) % | Progressive disease, % ([34]; 800 mg BID (N = 20)): (25) % | Stable disease, % ([34]; 800 mg BID (N = 20)): (55) % | Clinical Benefit Rate, % (CBR = PR + CR + SD ≥24 weeks) ([34]; 1200 mg BID (N = 20)): (60) % | Clinical Benefit Rate, n (CBR = PR + CR + SD ≥24 weeks) ([34]; 1200 mg BID (N = 20)): 12 | Disease Control rate (DCR), % ([34]; 1200 mg BID (N = 20)): (70) % | Duration of Clinical Benefit, median ([34]; 1200 mg BID (N = 20)): 7.46 | Duration of Response (DOR) in ORR patients, median ([34]; 1200 mg BID (N = 20)): 9.36 | Duration of Treatment (DOT), median ([34]; 1200 mg BID (N = 20)): 5.63 | Objective Response rate (ORR), % ([34]; 1200 mg BID (N = 20)): (15) % | Partial Response, % ([34]; 1200 mg BID (N = 20)): (15) % | Progressive disease, % ([34]; 1200 mg BID (N = 20)): (20) % | Stable disease, % ([34]; 1200 mg BID (N = 20)): (55) % | Clinical Benefit Rate, % (CBR = PR + CR + SD ≥24 weeks) ([34]; All (N = 40)): (57.5) % | Clinical Benefit Rate, n (CBR = PR + CR + SD ≥24 weeks) ([34]; All (N = 40)): 23 | Disease Control rate (DCR), % ([34]; All (N = 40)): (67.5) % | Duration of Clinical Benefit, median ([34]; All (N = 40)): 7.46 | Duration of Response (DOR) in ORR patients, median ([34]; All (N = 40)): 9.36 | Duration of Treatment (DOT), median ([34]; All (N = 40)): 5.60 | Objective Response rate (ORR), % ([34]; All (N = 40)): (12.5) % | Partial Response, % ([34]; All (N = 40)): (12.5) % | Progressive disease, % ([34]; All (N = 40)): (22.5) % | Stable disease, % ([34]; All (N = 40)): (55) % | Binding to plasma proteins [35]: > 96% | bioavailability [36]: > 72.4% | plasma stability [37]: stable | IC50 [38]: 33.2 nM
